Data published in patent publication US20250353912A1, “COMPOSITIONS AND METHODS COMPRISING ANTIBODIES THAT BIND TO COVALENT PEPTIDE CONJUGATES” (New York University, priority 2022, published 2025).

Assays:
[1] = system: H358 cells; test: Cell viability following exposure to sotorasib for 72 hr; type: cell-based; settings: 0.1 μM sotorasib, FIG. 43A
[2] = cited from earlier work
[3] = system: H2122 cells; test: Cell viability following exposure to sotorasib for 72 hr; type: cell-based; settings: FIG. 43A
[4] = second line disease, versus docetaxel

C=CC(=O)N1CCN(c2nc(=O)n(-c3c(C)ccnc3C(C)C)c3nc(-c4c(O)cccc4F)c(F)cc23)[C@@H](C)C1 [sotorasib]
killing of H358 cells [1]: nearly all of the H358 cells were killed
patients removed from the study because of liver toxicity ([2]; in vivo): six patients
patients with drug-induced liver injury ([2]; in vivo): two patients
patients with grade 3/4 liver toxicity ([2]; in vivo): 10%
overall survival [2, 4]: no impact
progression-free survival [2, 4]: improved by one month
sotorasib concentration up to which H2122 is resistant [3]: ~10 µM
